Reference: ChEMBL document CHEMBL5137003, “Recent advancement in small molecules as HCV inhibitors” (Bioorg Med Chem, 2022)

What was measured:
Hepatitis C virus [1] = assay: Inhibition of HCV replication in human Huh7.5 cells after 3 hrs by renilla luciferase assay; format: functional, cell-based, Hepacivirus hominis; conditions: Huh7.5, 3 h
Hepatitis C virus [2] = assay: Antiviral activity against HCV GT-3a; format: functional, organism-based, Hepacivirus hominis; conditions: subtype 3a
[3] = molecular target: T1, Hepatitis C virus serine protease, NS3/NS4A (Hepatitis C virus, UniProt A3EZI9+D2K2A8); assay: Inhibition of HCV GT-3a NS3/4A protease; format: protein-complex assay, Hepacivirus hominis, subtype 3a
Hepatitis C virus [4] = assay: Antiviral activity against HCV GT-3a (S52) assessed as inhibition of viral replication measured by renilla luciferase assay; format: functional, organism-based, Hepacivirus hominis; conditions: subtype 3a
Hepatitis C virus [5] = assay: Antiviral activity against HCV GT-1b infected in Huh-5-2 cells and measured after 72 hrs by luciferase assay; format: functional, organism-based, Hepacivirus hominis; conditions: subtype 1b, Huh-5-2, 72 h
Hepatitis C virus [6] = assay: Antiviral activity against HCV GT-3a infected in Huh-5-2 cells and measured after 72 hrs by luciferase assay; format: functional, organism-based, Hepacivirus hominis; conditions: subtype 3a, Huh-5-2, 72 h
Hepatitis C virus [7] = assay: Antiviral activity against HCV GT-1b infected in Huh-5-2 cells and measured after 24 hrs by luciferase assay; format: functional, organism-based, Hepacivirus hominis; conditions: subtype 1b, Huh-5-2, 24 h
Hepatitis C virus [8] = assay: Inhibition of HCV replicon cells; format: functional, Hepacivirus hominis
[9] = Inhibition of Hepatitis C virus NS3 helicase measured by DNA unwinding based assay; design: species or system Hepacivirus hominis
Hepatitis C virus [10] = assay: Antiviral activity against HCV JFH-1 infected in Huh7.5.1 cells assessed as decrease in intracellular and extracellular HCV RNA level measured after 3 days by RT-qPCR assay; format: functional, organism-based, Hepacivirus hominis; conditions: JFH-1, Huh-7.5.1, 72 h
Hepatitis C virus [11] = assay: Inhibition of HCV replication; format: functional, Hepacivirus hominis
[12] = molecular target: T1, Hepatitis C virus serine protease, NS3/NS4A; assay: Inhibition of HCV GT-1b NS3/4A protease measured by fluorescence assay; format: protein-complex assay, Hepacivirus hominis, subtype 1b
Hepatitis C virus [13] = assay: Antiviral activity against HCV infected in Huh-7.5.1 cells assessed as inhibition of HCV production measured after 24 hrs by titration assay; format: functional, organism-based, Hepacivirus hominis; conditions: Huh-7.5.1, 24 h
[14] = molecular target: T1, Hepatitis C virus serine protease, NS3/NS4A; assay: Inhibition of HCV GT1b recombinant NS3/4A protease using Ac-Glu-Glu-Val-Val-Ala-Cys-AMC as substrate and measured by fluorescence based assay; format: protein-complex assay, Hepacivirus hominis, subtype 1b
[15] = Inhibition of HCV GT1b full-length NS3/4A protease D168A mutant using Ac-Glu-Glu-Val-Val-Ala-Cys-AMC as substrate and measured by fluorescence based assay; design: species or system Hepacivirus hominis, subtype 1b
[16] = Inhibition of hepatitis C virus p7 ion channel; design: species or system Hepacivirus hominis
[17] = Inhibition of Cy5-dT15 ssDNA to Hepatitis C virus subtype 1b (Con1) NS3 helicase measured by fluorescence polarization (FP) based ssDNA binding assay; design: species or system Hepacivirus hominis
Hepatitis C virus [18] = assay: Antiviral activity against HCV JFH-1 infected in Huh7.5 cells and measured after 4 days; format: functional, organism-based, Hepacivirus hominis; conditions: JFH-1, Huh7.5, 96 h
[19] = molecular target: T1, Hepatitis C virus serine protease, NS3/NS4A; assay: Inhibition of HCV GT-3a NS3/4A protease measured by fluorescence assay; format: protein-complex assay, Hepacivirus hominis, subtype 3a
Hepatitis C virus [20] = assay: Antiviral activity against HCV GT-4a; format: functional, organism-based, Hepacivirus hominis; conditions: subtype 4a
Hepatitis C virus [21] = assay: Antiviral activity against HCV assessed as inhibition of viral fusion and replication at attachment stage; format: functional, organism-based, Hepacivirus hominis
Hepatitis C virus [22] = assay: Inhibition of HCV replication in human Huh7.5 cells cultured with SGR-Neo-RLuc-JFH1-2A replicon celIs measured after 72 hrs by luciferase assay; format: functional, cell-based, Hepacivirus hominis; conditions: JFH-1, Huh7.5, 72 h
Hepatitis C virus [23] = assay: Antiviral activity against HCV GT-1b; format: functional, organism-based, Hepacivirus hominis; conditions: subtype 1b
[24] = Inhibition of Hepatitis C virus NS3 protease; design: species or system Hepacivirus hominis
[25] = molecular target: RNA-directed RNA polymerase (Hepacivirus hominis, UniProt O39930); assay: Inhibition of Hepatitis C virus NS5B RNA-dependent-RNA-polymerase
Hepatitis C virus [26] = assay: Antiviral activity against HCV GT-1a expressing NS5B C316Y mutant variant; format: functional, organism-based, Hepacivirus hominis; conditions: subtype 1a
Hepatitis C virus [27] = assay: Antiviral activity against HCV GT-1a expressing NS5B S365A mutant variant; format: functional, organism-based, Hepacivirus hominis; conditions: subtype 1a
[28] = tested on: Internal ribosome entry site (IRES); assay: Disruption of hepatitis C virus-internal ribosome entry site (IRES) RNA base stacking interaction; design: species or system Hepacivirus hominis

With O=C(NCc1ccco1)c1ccc2[nH]c(COc3ccc(C45CC6CC(CC(C6)C4)C5)cc3)nc2c1 the EC50 (Hepatitis C virus [1]) was 1500 nM.
COC(=O)N[C@H](C(=O)N1CCC[C@H]1c1ncc(-c2ccc(C#CC#Cc3cnc([C@@H]4CCCN4C(=O)[C@H](NC(=O)OC)c4ccccc4)[nH]3)c(-c3cccc(F)c3F)c2)[nH]1)C(C)C gave an IC50 (Hepatitis C virus [2]) of 0.016 nM.
For [2H]C([2H])([2H])Oc1cc2ccnc(O[C@@H]3C[C@H]4C(=O)N[C@]5(C(=O)NS(=O)(=O)C6(C)CC6)C[C@H]5/C=C/CC[C@@H](C)C[C@@H](CC)[C@H](NC(=O)OC(C)(C)C(F)(F)F)C(=O)N4C3)c2cc1F, the IC50 [3] was 4.8 nM.
CC(C)(C)OC(=O)c1c(NC(=O)NCc2c(C(F)(F)F)sc3c2CCNC3)sc2c1CCCC2 gave an EC50 (Hepatitis C virus [4]) of 0.21 nM.
CCOC(=O)N[C@@H](C(=O)N1CCC[C@@H]1C(=O)Nc1ccc2c(c1)Cc1cc(NC(=O)[C@H]3CCCN3C(=O)[C@H](NC(=O)OCC)c3ccccc3)ccc1-2)c1ccccc1 showed an EC50 (Hepatitis C virus [5]) of 0.036 nM and an EC50 (Hepatitis C virus [6]) of 1.2 nM.
CCOC(=O)N[C@@H](CC(C)C)C(=O)N1CCC[C@H]1C(=O)Nc1cccc(C#CC#Cc2cccc(NC(=O)[C@@H]3CCCN3C(=O)[C@H](CC(C)C)NC(=O)OCC)c2)c1 gave an EC50 (Hepatitis C virus [7]) of 0.0399 nM.
Molecule O=C(Nc1ccn([C@@H]2O[C@H](CO)[C@@H](O)C2(F)F)c(=O)n1)C1Cc2ccccc2C1 has an IC50 (Hepatitis C virus [8]) of 10 nM.
For O=C1NC(=S)NC(=O)C1=Cc1cn(C(=O)c2ccc3ccccc3c2)c2ccccc12, the IC50 [9] was 21600 nM.
Cc1cc(Oc2ccc(N)cn2)ccc1Cl showed an EC50 (Hepatitis C virus [10]) of 80 nM.
With CCN(CC)c1ccc(Oc2ccc(-c3[nH]c4cccc(F)c4c(=O)c3C)cc2F)cc1 the EC50 (Hepatitis C virus [11]) was 5 nM.
For COC(=O)N[C@H](C(=O)N1CCC[C@H]1c1nc(C#CC#Cc2ccc(-c3c[nH]c([C@@H]4CCCN4C(=O)[C@@H](NC(=O)OC)C(C)C)n3)cc2)c[nH]1)C(C)C, the EC50 (Hepatitis C virus [2]) was 2.45 nM.
Cc1cc(NC(=O)Cc2csc(NS(=O)(=O)c3ccccc3)n2)ccc1Br showed an IC50 [12] of 2200 nM.
Work on COc1ccc(N/C=C2\C(=O)N(Cc3ccccc3)c3ccccc32)cc1 yielded an EC50 (Hepatitis C virus [2]) of 738 nM.
CC1(NCc2nnc(-c3cc(O)cc(O)c3)[nH]2)C2CC3CC(C2)CC1C3 (stereo not drawn) gave an IC50 (Hepatitis C virus [13]) of 6420 nM.
For CC(C)c1ccc(NC(=O)N[C@@H](Cc2c[nH]c3ccccc23)C(=O)NCCCN2CCCCC2)cc1, the IC50 [14] was 4600 nM and the IC50 [15] was 5980 nM.
For O=C1CCC(C23CC4CC(CC(C4)C2)C3)=NN1c1ccccc1, the IC50 [16] was 520 nM.
For CCCCC(O)c1cccc(=O)o1 (stereo not drawn), the IC50 [17] was 2800 nM.
Molecule CCC[C@H](NC(=O)[C@@H]1[C@H]2CCC[C@H]2CN1C(=O)[C@@H](NC(=O)[C@@H](NC(=O)c1cnc(C(=O)NCCOCCOCCOc2cc3c4c(cccc4c2)C(=O)N(C2CCC(=O)NC2=O)C3=O)cn1)C1CCCCC1)C(C)(C)C)C(=O)C(=O)NC1CC1 (stereo partly drawn) has an IC50 (Hepatitis C virus [18]) of 748 nM.
Work on Cc1ccc(S(=O)(=O)Nc2ccccc2C(=O)Nc2nc3c(Cl)ccc(Cl)c3s2)cc1 yielded an IC50 [19] of 1600 nM.
For COC(=O)N[C@H](C(=O)N1CCC[C@H]1C(=O)Nc1ccc([C@@H]2CC[C@@H](c3ccc(NC(=O)[C@@H]4CCCN4C(=O)[C@@H](NC(=O)OC)C(C)C)cc3)N2c2ccc(C(C)(C)C)cc2)cc1)C(C)C [OMBITASVIR], the EC50 (Hepatitis C virus [20]) was 0.00171 nM.
For COc1ccc2cc3[n+](cc2c1OC)CCc1cc2c(cc1-3)OCO2 [BERBERINE], the EC50 (Hepatitis C virus [21]) was 7870 nM.
Work on O=C(Nc1ccc(C2=NCCN2)cc1)c1cc(C(=O)Nc2ccc(C3=NCCN3)cc2)cc(C(=O)Nc2ccc(C3=NCCN3)cc2)c1 yielded an IC50 (Hepatitis C virus [22]) of 14000 nM.
COc1ccc2c(c1)c(C=C1C(=O)NC(=S)NC1=O)cn2C(=O)c1ccc2ccccc2c1 showed an IC50 [9] of 21400 nM.
Work on O=C(N[C@@H](C(=O)N1CCC[C@H]1c1ncc(-c2ccc(-c3ccc(-c4cnc([C@@H]5CCCN5C(=O)[C@H](NC(=O)C5CC5)c5ccccc5)s4)cc3)cc2)s1)c1ccccc1)C1CC1 yielded an EC50 (Hepatitis C virus [23]) of 0.003 nM.
In the case of CCCCOC(=O)N[C@H](C(=O)N1CCC[C@H]1C(=O)Nc1ccc(-c2ccc(NC(=O)[C@@H]3CCCN3C(=O)[C@@H](NC(=O)OCCCC)c3ccccc3)cc2)cc1)c1ccccc1, the EC50 (Hepatitis C virus [23]) is reported as 0.0067 nM.
COc1ccc2c(c1)c(C=C1C(=O)NC(=S)NC1=O)cn2C(=O)c1cccc2ccccc12 gave an IC50 [9] of 23500 nM.
With O=C(O[C@@H]1O[C@@H]2COC(=O)c3cc(O)c(O)c(O)c3-c3c(cc(O)c(O)c3O)C(=O)O[C@H]([C@H]1O)[C@@H]2O)c1cc(O)c(O)c(O)c1 [CORILAGIN] the IC50 [24] was < 1000 nM and the IC50 [25] was 20000 nM.
Work on CNC(=O)c1c(-c2ccc(F)cc2)oc2cc(N(C)S(C)(=O)=O)c(-c3ccc4c(n3)-c3cc5c(F)cccc5n3CO4)cc12 [MK-8876] yielded an EC50 (Hepatitis C virus [26]) of 2.3 nM and an EC50 (Hepatitis C virus [27]) of 1 nM.
Molecule CN1CCN(CCCNc2nc3cc([N+](=O)[O-])ccc3nc2NCc2ccc(NC(=O)/C=C/c3ccc(N(C)C)cc3)cc2)CC1 has an EC50 [28] of 67000 nM.
